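Five concentrations, 48 hours, 96-well plates. GI50: concentration for 50% inhibition of growth.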 The source made the active and inactive calls. Rule as the data show it: active = GI50 up to about 1.1 µM and inactive = higher.
Legend:
Experiment in all cases: NCI anticancer screen, dose series, 48 h
[1] = tested on: A549
[2] = tested on: ACHN
[3] = tested on: BT-549
[4] = tested on: CCRF-CEM
[5] = tested on: COLO 205
[6] = tested on: HCT-116
[7] = tested on: HOP-92
[8] = tested on: KM12
[9] = tested on: MCF7
[10] = tested on: NCI-H226
[11] = tested on: NCI-H522
[12] = tested on: OVCAR-8
[13] = tested on: PC-3
[14] = tested on: SF-539
[15] = tested on: SK-OV-3
[16] = tested on: SNB-19
[17] = tested on: SNB-75
[18] = tested on: SW-620
[19] = tested on: U-251
[20] = tested on: UACC-62

Measured: GI50

CC1=NN(c2nc(N)nc(/C(C#N)=C/c3ccc([N+](=O)[O-])o3)n2)C(C)(C)C1
inactive: [1] 13.1 µM | [2] 1.81 µM | [3] 3.34 µM | [4] 1.3 µM | [5] 1.65 µM | [6] 1.45 µM | [7] 1.95 µM | [8] 13.9 µM | [9] 1.69 µM | [10] 2.24 µM | [11] 1.66 µM | [12] 2.51 µM | [13] 9.68 µM | [14] 3.22 µM | [15] 21.1 µM | [16] 15.7 µM | [17] 2.85 µM | [18] 1.76 µM | [19] 5.21 µM | [20] 2.19 µM

Cn1c(=O)c2c(nc(N3CCOCC3)n2CCCNCC(O)c2ccc(O)c(O)c2)n(C)c1=O (stereo not given)
inactive: [1] > 100 µM | [2] > 100 µM | [3] > 100 µM | [4] > 100 µM | [5] > 100 µM | [6] > 100 µM | [7] > 100 µM | [8] > 100 µM | [9] > 100 µM | [10] > 100 µM | [11] > 100 µM | [12] 25.4 µM | [13] > 100 µM | [14] > 100 µM | [15] > 100 µM | [16] > 100 µM | [17] > 100 µM | [18] > 100 µM | [19] > 100 µM | [20] > 100 µM

CC(C)(C)[Si](C)(C)OCc1cccc(OCCOc2cccc(CO[Si](C)(C)C(C)(C)C)c2[N+](=O)[O-])c1[N+](=O)[O-]
inactive: [1] > 100 µM | [2] > 100 µM | [3] > 100 µM | [4] > 100 µM | [5] > 100 µM | [6] > 100 µM | [7] > 100 µM | [8] > 100 µM | [9] > 100 µM | [10] > 100 µM | [11] > 100 µM | [12] > 100 µM | [13] > 100 µM | [14] > 100 µM | [15] > 100 µM | [16] > 100 µM | [17] > 100 µM | [18] > 100 µM | [19] > 100 µM | [20] > 100 µM

CC(=O)Nc1ccc2cc3[nH]c4cc(NC(C)=O)ccc4c3nc2c1
inactive: [1] > 100 µM | [2] > 100 µM | [3] > 100 µM | [4] 38 µM | [5] > 100 µM | [6] > 100 µM | [7] > 100 µM | [8] 21.7 µM | [9] > 100 µM | [10] > 100 µM | [11] > 100 µM | [12] > 100 µM | [13] > 100 µM | [14] > 100 µM | [15] > 100 µM | [16] > 100 µM | [17] > 100 µM | [18] > 100 µM | [19] 77.4 µM | [20] > 100 µM

Cc1cc2occ(S(=O)(=O)NC(=O)Nc3ccc(Cl)cc3)c(=O)c2c(=O)o1
inactive: [1] > 100 µM | [2] 40.2 µM | [3] > 100 µM | [4] > 100 µM | [5] > 100 µM | [6] > 100 µM | [7] > 100 µM | [8] > 100 µM | [9] > 100 µM | [10] > 100 µM | [11] > 100 µM | [12] > 100 µM | [13] > 100 µM | [14] > 100 µM | [15] > 100 µM | [16] > 100 µM | [17] > 100 µM | [18] > 100 µM | [19] > 100 µM | [20] 23.4 µM

From ChEMBL document CHEMBL1201862, “PubChem BioAssay data set” (2004)
